Patent US8093268B2, “Pharmaceutical compositions comprising 2-methoxy-5-(5-trifluoromethyl-tetrazol-1-yl-benzyl)-(2S-phenylpiperidin-3S-yl-)” (Glaxo Group Limited, priority 2007, dated 2012)

Assays:
Male CD rats = experiment: Rat MEST model (maximal electroshock seizure threshold); assay type: in vivo
Description: This work was conducted in compliance with the Home Office Guidance on the operation of the Animals (Scientific Procedures) Act 1986 and GlaxoSmithKline ethical standards. Male CD rats (100-145 g) were supplied by Charles River, UK. Animals were group housed (6 animal per cage) with free access to food (Standard rodent chow; Harlan, UK) and water under a 12 h light/dark cycle (lights on at 0700 h). A period of at least one week between arrival at GSK and the study was allowed in all cases.
Animals were administered a test compound at the appropriate dose, route and pre-treatment time and returned to their home cage. Testing occurred in a separate room from that used for housing. Testing involved determining the threshold for tonic hindlimb extensor seizures using a Hugo Sachs Electronik stimulator which delivers a constant current of 0.3 second duration, 50 Hz, sinewave form, fully adjustable between 1 and 300 mA. Stimuli were delivered via corneal electrodes (Stean T O, Atkins A R, Heidbreder C A, Quinn L P, Trail B K, Upton N. (2005) Br J. Pharmacol. 144(5):628-35). Seizure threshold was determined using the ‘up and down’ method of Kimball et al. (1957)(Kimball A W, Burnett W T Jr, Doherty D G. (1957) Radiat Res. 7(1):1-12). The first animal tested in each group was stimulated with a current that might be expected to be close to the threshold for induction of a seizure. If a tonic seizure was not induced, then then next animal in the group received a stimulus 5 mA higher. If a tonic seizure was induced, then the next animal received a stimulus 5 mA lower. This is repeated for all animals within the control (vehicle) group. In the case of groups treated with a sodium channel blocker steps of 10 to 30 mA were used.
(§1) All doses were calculated as base. ENa9 and ENa13 were dosed via the subcutaneous (s.c.) route at 1 ml/kg in a 2% v/v DMSO/saline vehicle 30 minutes prior to test. ENa7 and ENa14 were dosed orally (p.o.) in a 1% w/v methylcellulose/water vehicle at 2 ml/kg, 60 minutes before test. Compound ENK6 was dosed with via the intraperitoneal (i.p.) route 60 minutes before the test or via the s.c. route 15 minutes before test. In both cases ENK6 was dissolved in saline.
Induction of seizure is measured as an all-or-nothing effect scored as either present (+) or absent (0) for each animal. The data for each treatment group were recorded as the number of +'s and 0's at each current level employed and this information was then used to calculate the CC50 value (current required for 50% of animals to show seizure behaviour)+standard error of the mean according to the method of Kimball et al. (1957). Drug effects were calculated as the % change in CC50. Significant differences between drug-treated animals and appropriate vehicle treated groups were assessed according to the methods of Litchfield and Wilcoxon (1949). The statistical significance of differences between sodium channel blocker alone or in combination with ENK6 was assessed using a Student's t test.

[1] = Blood and brain concentrations in satellite animals of the MEST studies; assay type: in vivo, rat; conditions: 1 and 3 mg/kg s.c. with ENK6 30 mg/kg i.p.
Description: Satellite animals (n=3/group) received the same drugs or combinations of drugs as the test groups, and were culled at the appropriate time after dosing. Blood and brain samples were taken for analysis of the drug concentrations in these compartments.
as §1

rats = experiment: FCA (Freunds Complete Adjuvant) model of inflammatory hypersensitivity to pain, weight bearing; assay type: in vivo, rat
Description: • Naïve weight bearing readings were taken. The hypersensitivity to pain was measured using the Rat incapacitance tester (Linton instruments). This instrument is serviced once a year and should be regularly calibrated • All rats then received an intraplantar injection of 100 ul of FCA (Freund's complete adjuvant) into the left hind paw. The FCA was sonicated for 15 minutes prior to use. • Approximately 23 hrs after administration of the FCA, pre-dose weight bearing readings were taken. All animals were then ranked and randomised for dosing according to their FCA window (predose difference in grams−naïve difference in grams). […] Celebrex 10 mg/kg p.o. (positive control) as appropriate according to ranking and randomisation. • Animals were assessed in the weight bearing apparatus 1 hour post dose. • The study was blind and randomised by FCA window using the Latin square method. • % reversals were calculated by using the naïve, pre-dose and post dose values as follows: % Reversal=[(Pre-dose−Post-dose)/(Pre-dose−Naïve)]×100 • Graphs and ED50 were calculated where appropriate using Prism4. • Statistical analysis was carried out using ANOVA followed by calculating the least square means using the statistical package Statistica 6.1 • From the dose response curves the ED20 was determined for the combination study Results • Naïve weight bearing readings were taken. The hypersensitivity to pain was measured using the Rat incapacitance tester (Linton instruments). This instrument is serviced once a year and should be regularly calibrated • All rats then received an intraplantar injection of 100 ul of FCA (Freund's complete adjuvant) into the left hind paw. The FCA was sonicated for 15 minutes prior to use. • Approximately 23 hrs after administration of the FCA, pre-dose weight bearing readings were taken. All animals were then ranked and randomised for dosing according to their FCA window (predose difference in grams−naïve difference in grams). […] See table 5 for details of the groups • Animals were assessed in the weight bearing apparatus 1 hour post dose. • The study was blind and randomised by FCA window using the Latin square method. • % reversals were calculated by using the naïve, pre-dose and post dose values as follows: % Reversal=[(Pre-dose−Post-dose)/(Pre-dose−Naïve)]×100 • Statistical analysis was carried out using ANOVA followed by calculating the least square means using the statistical package Statistica 6.1 • ED50 and ED20 values and graphs were calculated using prism5 • Naïve weight bearing readings were taken. The hypersensitivity to pain was measured using the Rat incapacitance tester (Linton instruments). This instrument is serviced once a year and should be regularly calibrated • All rats then received an intraplantar injection of 100 ul of FCA (Freund's complete adjuvant) into the left hind paw. The FCA was sonicated for 15 minutes prior to use. • Approximately 23 hrs after administration of the FCA, pre-dose weight bearing readings were taken. All animals were then ranked and randomised for dosing according to their FCA window (predose difference in grams−naïve difference in grams). […] Graphs and ED50 were calculated where appropriate using Prism5 • Statistical analysis was carried out using ANOVA followed by calculating the least square means using the statistical package Statistica 6.1 Results

[2] = 3 mg/kg s.c., 30 min before test, alone
[3] = ED20 dose alone (ENa7 0.1 mg/kg p.o.; ENK6 0.08 mg/kg s.c.)
[4] = FIG. 3, group marked by vertical arrow, ENK6 10 mg/kg sc 15 min ptt, Ena7 1 & 3 mg/kg po 60 min ptt

Q: Which results are given for `CN1CC[C@]2(CC[C@H](c3ccc(OCc4ccccc4F)cc3)N2)C1=O.Cl` [ENa13, (2R,5R)-2-(4-{[(2-Fluorophenyl)methyl]oxy}phenyl)-7-methyl-1,7-diazaspiro[4,4]nonan-6-one hydrochloride]?
A: effect on seizure threshold (Male CD rats; [2]): robust and significant increase in seizure threshold; blood or brain concentration in the presence of ENK6 versus alone [1]: No increase

Q: Which results are given for `COc1ccc(-n2nnnc2C(F)(F)F)cc1CN[C@H]1CCCN[C@H]1c1ccccc1.Cl.Cl` [ENK6, [2-Methoxy-5-(5-trifluoromethyl-tetrazol-1-yl)-benzyl]-([2S,3S]-2-phenyl-piperidin-3-yl)-amine dihydrochloride]?
A: effect on seizure threshold (Male CD rats; 10 mg/kg s.c., 15 min before test, alone (first experiment)): no effect on seizure threshold; effect on seizure threshold (Male CD rats; 30 mg/kg i.p., 60 min before test, alone): no effect on seizure threshold; effect on seizure threshold (Male CD rats; 30 mg/kg s.c., 15 min before test, alone): no effect on seizure threshold; effect on FCA induced hypersensitivity (rats; 0.1-3.0 mg/kg, alone, 1 hour post dose, dihydrochloride): dose related reversal of the FCA induced hypersensitivity; effect on FCA induced hypersensitivity (rats; [3]): no significant effect on the FCA induced hypersensitivity; ED20, reversal of FCA induced hypersensitivity (rats; s.c., alone (summary of results)): approx 0.08 mg/kg

Q: Which “effect on seizure threshold” value (Male CD rats; 1 mg/kg p.o., 60 min before test, alone) does the source give for `Nc1nnc(-c2cccc(Cl)c2Cl)c(N)n1` [ENa7, 3,5-diamino-6-(2,3-dichlorophenyl)-1,2,4-triazine, reference compound] here?
A: little or no increase in seizure threshold

Q: And the CC50 value (Male CD rats; [4])?
A: greater than 180 mA

Q: What about the “increase in CC50” value (Male CD rats; [4]) of the same molecule?
A: > 780%

Q: What about the “effect on FCA induced hypersensitivity” value (rats; 0.1-3.0 mg/kg, alone, 1 hour post dose) of the same molecule?
A: dose related reversal of the FCA induced hypersensitivity

Q: And the “effect on FCA induced hypersensitivity” value (rats; [3])?
A: no significant effect on the FCA induced hypersensitivity

Q: What does the source list for `Cl.NC(=O)[C@@H]1CC[C@H](c2ccc(OCc3ccccc3F)cc2)N1` [ENa9, (5R)-5-(4-{[(2-fluorophenyl)methyl]oxy}phenyl)-L-prolinamide hydrochloride]?
A: effect on seizure threshold (Male CD rats; [2]): small, but significant increase in seizure threshold; blood or brain concentration in the presence of ENK6 versus alone [1]: No increase

Q: What does the source list for `Nc1nc(N)c(-c2cccc(Cl)c2Cl)c(CF)n1` [ENa15, R(−)-2,4-diamino-5-(2,3-dichlorophenyl)-6-fluoromethyl pyrimidine methanesulphonate]?
A: effect on seizure threshold (Male CD rats; 0.3 mg/kg p.o., 60 min before test, alone): no increase in seizure threshold; increase in CC50(mA) (Male CD rats; 1 mg/kg p.o. in the presence of ENK6 30 mg/kg s.c.): 51%
